Laboratory results published in patent US5580982A, “Substituted 3-(aminoalkylamino)-1,2-benzisoxazoles and related compounds” (priority 1995, dated 1996).
Where a name gives a salt, the structure may show the parent alone. Read-outs that look alike come from different tables or passages of the source.

Assays:
MAO-A = molecular target: T1, MAO-A (Rattus norvegicus, UniProt P21396); experiment: Ex vivo monoamine oxidase inhibition assay, Type A; format: in vivo; conditions: po
T1 construct: the whole brain without cerebellum was dissected rapidly and frozen on dry ice; from tissue; host or cells: whole brain without cerebellum of orally dosed male Wistar rats, homogenate
T1 sequence (P21396 1-526): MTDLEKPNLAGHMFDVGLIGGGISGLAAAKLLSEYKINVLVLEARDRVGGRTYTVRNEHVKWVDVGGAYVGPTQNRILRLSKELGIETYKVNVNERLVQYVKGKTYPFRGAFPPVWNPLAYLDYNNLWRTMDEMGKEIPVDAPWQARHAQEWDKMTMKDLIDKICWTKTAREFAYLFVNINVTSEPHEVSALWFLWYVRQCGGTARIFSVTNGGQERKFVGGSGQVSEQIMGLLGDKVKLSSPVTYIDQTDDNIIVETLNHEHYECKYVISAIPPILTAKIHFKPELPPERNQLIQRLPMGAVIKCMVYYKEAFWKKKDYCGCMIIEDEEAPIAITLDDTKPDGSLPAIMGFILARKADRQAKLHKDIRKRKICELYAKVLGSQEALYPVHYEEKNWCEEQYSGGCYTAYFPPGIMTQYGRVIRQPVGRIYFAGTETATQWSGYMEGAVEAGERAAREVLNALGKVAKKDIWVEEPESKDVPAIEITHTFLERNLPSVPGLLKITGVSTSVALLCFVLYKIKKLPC
Procedure: (§1) The enzyme monoamine oxidase (MAO) exists in two catalytically distinguishable forms termed MAO-A and MAO-B. The ability of the compounds of the invention to inhibit MAO ex vivo in the rat was determined using a procedure adapted from the procedure set forth in The Journal of Pharmacology and Experimental Therapeutics, Vol. 248, No. 1, (1989), pp. 400-414.
(§2) The compound to be tested was administered to male Wistar rats orally. At specified times after administration the rats were decapitated and the whole brain without cerebellum was dissected rapidly and frozen on dry ice. The samples were stored at -80° C. until measurement of the MAO activity. After thawing, the tissues were homogenized in 5 volumes of 0.1 mol/l of potassium-phosphate buffer, pH 7.4, using all glass homogenisers. MAO activity was determined essentially as described by Wurtman and Axelrod. Biochem. Pharmacol. 12: 1439-1441, (1963).
(§3) The enzyme reaction was started by addition of 80 μl of the MAO-A substrate [^3 H]-5-HT (0.96 mCi/mmol, final amine concentration is 200 μM or of the MAO-B substrate [^14 C]PEA (0.192 mCi/mmol, final amine concentration is 200 μM and the incubation continued for 10 minutes at 37° C. Then, the reaction was stopped by addition of 200 μl of 2N HCl, and the deaminated metabolites were extracted by vigorous shaking for 10 minutes with 5 ml of diethylether (5-HT-extraction) or n-heptane (PEA-extraction). After centrifugation (1000×g; 30 sec) the water-phase was frozen in dry ice and the organic layer poured into plastic vials containing 5 ml of scintillation cocktail. Finally, the radioactivity was determined in a scintillation spectrometer. Reaction mixtures as described above but lacking the homogenate served as blanks.

MAO-B = molecular target: T2, MAO-B (Rattus norvegicus, UniProt P19643); experiment: Ex vivo monoamine oxidase inhibition assay, Type B; format: in vivo; conditions: po
T2 construct: the whole brain without cerebellum was dissected rapidly and frozen on dry ice; from tissue; host or cells: whole brain without cerebellum of orally dosed male Wistar rats, homogenate
T2 sequence (P19643 1-520): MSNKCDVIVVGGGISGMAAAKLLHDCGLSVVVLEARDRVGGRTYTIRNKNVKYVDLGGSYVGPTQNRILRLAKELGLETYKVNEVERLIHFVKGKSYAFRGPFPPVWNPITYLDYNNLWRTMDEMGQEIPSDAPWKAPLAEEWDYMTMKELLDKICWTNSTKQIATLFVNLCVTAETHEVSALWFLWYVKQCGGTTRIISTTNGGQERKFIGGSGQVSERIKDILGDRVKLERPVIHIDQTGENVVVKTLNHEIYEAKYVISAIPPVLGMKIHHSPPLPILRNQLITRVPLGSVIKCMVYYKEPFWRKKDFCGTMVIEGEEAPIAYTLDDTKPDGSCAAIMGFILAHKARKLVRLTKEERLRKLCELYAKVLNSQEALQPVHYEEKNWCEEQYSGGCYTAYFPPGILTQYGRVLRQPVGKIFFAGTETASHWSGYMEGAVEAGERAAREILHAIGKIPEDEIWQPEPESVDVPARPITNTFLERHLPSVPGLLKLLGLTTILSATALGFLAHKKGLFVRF
Procedure: as §1, §2, §3

monoamine oxidase = conditions: literature reference (2); cited from earlier work
Brain AChE = molecular target: T3, Brain AChE (Rattus norvegicus, UniProt P37136); experiment: In vitro inhibition of acetylcholinesterase activity in rat striatum; format: biochemical
T3 construct: corpora striata dissected free, weighed and homogenized in 19 volumes; from tissue; host or cells: corpora striata of male Wistar rats, whole homogenate
T3 sequence (P37136 32-614): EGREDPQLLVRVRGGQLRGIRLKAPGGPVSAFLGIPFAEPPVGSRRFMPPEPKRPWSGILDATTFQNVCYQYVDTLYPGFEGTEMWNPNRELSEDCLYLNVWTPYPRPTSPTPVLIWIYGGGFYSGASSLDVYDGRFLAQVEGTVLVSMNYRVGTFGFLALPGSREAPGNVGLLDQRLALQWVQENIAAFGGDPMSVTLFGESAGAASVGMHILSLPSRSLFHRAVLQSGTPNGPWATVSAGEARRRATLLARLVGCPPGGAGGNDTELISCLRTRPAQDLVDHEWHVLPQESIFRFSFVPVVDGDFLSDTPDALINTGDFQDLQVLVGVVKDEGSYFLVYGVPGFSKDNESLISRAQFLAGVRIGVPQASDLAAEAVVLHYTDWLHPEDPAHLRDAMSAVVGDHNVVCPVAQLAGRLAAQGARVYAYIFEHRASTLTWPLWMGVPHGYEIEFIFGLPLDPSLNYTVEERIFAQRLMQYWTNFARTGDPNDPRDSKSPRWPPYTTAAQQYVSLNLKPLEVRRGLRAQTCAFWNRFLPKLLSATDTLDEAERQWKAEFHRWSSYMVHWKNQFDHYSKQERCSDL
Procedure: In Vitro Inhibition of Acetylcholinesterase Activity in Rat Striatum
The method described below was used in this invention for assaying cholinesterase activity. This is a modification of the method of Ellman et al., Biochem. Pharmacol. 7, 88 (1961).
4. A 2 mM stock solution of the test drug is made up in a suitable solvent and brought to volume with 0.5 mM DTNB (reagent 3).
Drugs are serially diluted (1:10) such that the final concentration (in cuvette) is 10^-4 M and screened for activity. If active, IC50 values are determined from the inhibitory activity of subsequent concentrations.
Male Wistar rats are decapitated, brains rapidly removed, corpora striata dissected free, weighed and homogenized in 19 volumes (approximately 7 mg protein/ml) of 0.05M phosphate buffer, pH 7.2 using a Potter-Elvehjem homogenizer. A 25 microliter aliquot of the homogenate is added to 1.0 milliter vehicle or various concentrations of the test drug and preincubated for 10 minutes at 37° C.
Enzyme activity is measured with the Beckman DU-50 spectrophotometer. This method can be used for IC50 determinations and for measuring kinetic constants.
Reagents are added to the blank and sample cuvettes as follows:
Blank values are determined for each run to control for non-enzymatic hydrolysis of substrate and these values are automatically subtracted by the kindata program available on kinetics soft-pac module. This program also calculates the rate of absorbance change for each cuvette.
Substrate concentration is 10 mM diluted 1:2 in assay yielding final concentration of 5 mM. DTNB concentration is 0.5 mM yielding 0.25 mM final concentration. [formula] IC50 values are calculated from log-probit analysis.

[1] = 50 mg/kg, p.o., 0.5 h, read-out: Ex vivo inhibition (%) of monoamine oxidase Type A
[2] = 50 mg/kg, p.o., 1.0 h, read-out: Ex vivo inhibition (%) of monoamine oxidase Type A
[3] = 50 mg/kg, p.o., 4.0 h, read-out: Ex vivo inhibition (%) of monoamine oxidase Type A
[4] = 50 mg/kg, p.o., 24.0 h, read-out: Ex vivo inhibition (%) of monoamine oxidase Type A
[5] = 50 mg/kg, p.o., 0.5 h, read-out: Ex vivo inhibition (%) of monoamine oxidase Type B
[6] = 50 mg/kg, p.o., 1.0 h, read-out: Ex vivo inhibition (%) of monoamine oxidase Type B
[7] = 50 mg/kg, p.o., 4.0 h, read-out: Ex vivo inhibition (%) of monoamine oxidase Type B
[8] = 50 mg/kg, p.o., 24.0 h, read-out: Ex vivo inhibition (%) of monoamine oxidase Type B
[9] = rat striatum homogenate, pH 7.2, read-out: Inhibitory Concentration IC50 Brain AChE

Structure (SMILES): CN(CCN1CCOCC1)c1noc2ccccc12 [N-methyI-N-[2-(4-morpholinyl)ethyl]-1,2-benzisoxazol-3-amine]
- inhibition at 50 mg/kg (MAO-A; [1]): 78%
- inhibition at 50 mg/kg (MAO-A; [2]): 66%
- inhibition at 50 mg/kg (MAO-A; [3]): 76%
- inhibition at 50 mg/kg (MAO-A; [4]): 11%
- inhibition at 50 mg/kg (MAO-B; [5]): 32%
- inhibition at 50 mg/kg (MAO-B; [6]): 25%
- inhibition at 50 mg/kg (MAO-B; [7]): 36%
- inhibition at 50 mg/kg (MAO-B; [8]): 0%

Structure (SMILES): N[C@@H]1C[C@H]1c1ccccc1 (relative stereo) [tranylcypromine]
- selectivity of monoamine oxidase inhibition (type A / type B) (monoamine oxidase): nonselective inhibitors

Structure (SMILES): c1ccc2c(NCCN3CCOCC3)noc2c1 [N-[2-(4-Morpholinyl)ethyl]-1,2-benzisoxazol-3-amine]
- inhibition at 50 mg/kg (MAO-A; [1]): 88%
- inhibition at 50 mg/kg (MAO-A; [2]): 85%
- inhibition at 50 mg/kg (MAO-A; [3]): 68%
- inhibition at 50 mg/kg (MAO-A; [4]): 3.5%
- inhibition at 50 mg/kg (MAO-B; [5]): 52%
- inhibition at 50 mg/kg (MAO-B; [6]): 45%
- inhibition at 50 mg/kg (MAO-B; [7]): 33%
- inhibition at 50 mg/kg (MAO-B; [8]): 0%

Structure (SMILES): C#CCN(C)Cc1ccccc1 [pargyline]
- selectivity of monoamine oxidase inhibition (type A / type B) (monoamine oxidase): selective inhibitors of the type B enzyme

Structure (SMILES): C#CCN(C)CCCOc1ccc(Cl)cc1Cl [Clorgyline]
- selectivity of monoamine oxidase inhibition (type A / type B) (monoamine oxidase): selective inhibitor of the type A enzyme

Structure (SMILES): COc1ccc2c(N(C)CCC3CCN(Cc4ccccc4)CC3)noc2c1 [6-Methoxy-N-methyl-N-[2-[4-(1-phenylmethyl)piperdinyl]ethyl]-1,2-benzisoxazol-3-amine sesquihydrochloride]
- IC50 (Brain AChE; [9]): 4 µM

Structure (SMILES): COc1ccc2c(N3CCN(c4ccncc4)CC3)noc2c1Br [7-Bromo-6-methoxy-3-[1-(4-pyridyl)piperazinyl]-1,2-benzisoxazole]
- IC50 (Brain AChE; [9]): 14 µM

Structure (SMILES): CN(C)C(=O)Oc1ccc2c(N(C)CCN3CCOCC3)noc2c1Br [7-Bromo-3-[N-methyl, N,2-(4-morpholinyl)ethyl]amino-1,2-benzisoxazol-6-yl dimethylcarbamate]
- IC50 (Brain AChE): 2 µM

Structure (SMILES): CNC(=O)Oc1ccc2c(N(C)CCN3CCOCC3)noc2c1 [3-[[2-(4-Morpholinyl)ethyl]methylamino]1,2-benzisoxazol-6-yl methylcarbamate]
- inhibition at 50 mg/kg (MAO-A; read-out: Ex vivo inhibition (%) of monoamine oxidase Type A, 50 mg/kg, p.o., 0.5 h): 26%
- inhibition at 50 mg/kg (MAO-A; read-out: Ex vivo inhibition (%) of monoamine oxidase Type A, 50 mg/kg, p.o., 1.0 h): 29%
- inhibition at 50 mg/kg (MAO-A; read-out: Ex vivo inhibition (%) of monoamine oxidase Type A, 50 mg/kg, p.o., 4.0 h): 42%
- inhibition at 50 mg/kg (MAO-A; read-out: Ex vivo inhibition (%) of monoamine oxidase Type A, 50 mg/kg, p.o., 24.0 h): 14%
- inhibition at 50 mg/kg (MAO-B; read-out: Ex vivo inhibition (%) of monoamine oxidase Type B, 50 mg/kg, p.o., 0.5 h): 19%
- inhibition at 50 mg/kg (MAO-B; read-out: Ex vivo inhibition (%) of monoamine oxidase Type B, 50 mg/kg, p.o., 1.0 h): 19%
- inhibition at 50 mg/kg (MAO-B; read-out: Ex vivo inhibition (%) of monoamine oxidase Type B, 50 mg/kg, p.o., 4.0 h): 28%
- inhibition at 50 mg/kg (MAO-B; read-out: Ex vivo inhibition (%) of monoamine oxidase Type B, 50 mg/kg, p.o., 24.0 h): 12%
- IC50 (Brain AChE): 13 µM

Structure (SMILES): CC(C)NNC(=O)c1ccncc1 [iproniazid]
- selectivity of monoamine oxidase inhibition (type A / type B) (monoamine oxidase): nonselective inhibitors

Structure (SMILES): CN(C)C(=O)Oc1ccc2c(N3CCN(c4ccncc4)CC3)noc2c1 [3-[1-(4-Pyridyl)piperazinyl]-1,2-benzisoxazol-6-yl dimethylcarbamate]
- IC50 (Brain AChE): 0.88 µM

Structure (SMILES): C#CCN(C)C(C)Cc1ccccc1 (stereo not shown) [deprenyl]
- selectivity of monoamine oxidase inhibition (type A / type B) (monoamine oxidase): selective inhibitors of the type B enzyme
